Results reported in article PMC9115111, “Metalloprotease Gp63-Targeting Novel Glycoside Exhibits Potential Antileishmanial Activity” (Frontiers in Cellular and Infection Microbiology, 2022).
Several values for one entry are separate records, joined by “and”; a condition that tells them apart may be missing. Equal entries are not always repeated.

Columns and labels:
AG83 promastigotes = assay: CFDA-SE promastigote proliferation assay (FACS); type: cell-based, Leishmania donovani; settings: 5 µM
Method: AG83 parasite growth and multiplication were assessed by fluorescence-activated cell sorting and fluorescence microscopy with 6-carboxyfluorescein diacetate succinimidyl ester (CFDA-SE, Life Technologies, USA) as a probe. Promastigotes were washed thrice with PBS. The cells were labeled with CFDA-SE dye and were then incubated at 37°C for 10 min. These cells were then resuspended in ice-cold M199 medium. Furthermore, they were centrifuged at 1,200 g for 10 min (4°C) and resuspended in fresh medium. Cells were treated with the Gly2 and were analyzed through BD FACS DIVA for 3 consecutive replicates after 0, 24, 48, and 72 h, respectively ([Messaritakis et al., 2010]).

[1] = system: promastigotes of clinical isolate of PKDL strain, BS12 of L. donovani; assay: LDH cytotoxicity assay on promastigotes of clinical PKDL isolate BS12; type: cell-based; settings: Leishmania donovani, LDH assay 72 h
Method: Promastigote forms of L. donovani (MHOM/IN/1983/AG83) were cultured at 26°C in M199 (GIBCO, India), pH 7.4, supplemented with 10% (v/v) inactivated fetal bovine serum (FBS, GIBCO, India) and 0.02 mg/ml gentamycin (Life Technologies, USA). The clinical isolate of PKDL, BS12, was obtained as a gift from Prof. Mitali Chatterjee [Department of Pharmacology, Institute of Postgraduate Medical Education and Research (IPGMER), Kolkata, India]. […]
AG83 strain of L. donovani were exposed to various Gly compound concentrations (100 nM–100 µM) in a 96-well microtiter plate (100 µl/well volume) and were incubated for 72 h at 26°C. […] The percent cytotoxicity of test compounds was calculated by normalizing with amphotericin B as 100%. Further percentage growth inhibition was calculated using the formula: […]
We further evaluated the effect the Gly2 on the clinical isolate of PKDL strain, BS12 of L. donovani ([Sengupta et al., 2019]). […] Along with Gly2, we also evaluated the cytotoxic effects of 12 compounds on L. donovani promastigotes derived from clinical isolates of PKDL strain at 5 µM ( Supplementary Figure S2 ).

[2] = system: L. donovani promastigotes; assay: Hoechst/PI live/dead dual staining of promastigotes; type: cell-based, Leishmania donovani; settings: 5 µM, 72 h
Method: The toxic effect of the three compounds, Gly2, 6, and 8 on promastigotes at 5 µM >IC50 concentration was measured by Hoechst and propidium iodide (PI) double staining. […], parasites were harvested, washed in 0.01 M PBS (pH = 7.4), and stained with Hoechst 33258 (1 µg/ml) (Life Technologies, USA) and PI (5 µg/ml) (Life Technologies, USA) followed by incubation for a period of 20 min at 37°C. Subsequently, cells were washed for excessive stain removal and visualized using fluorescence microscope with 510–560-nm filter block for PI red fluorescence and excitation/emission spectra at 361/497 for Hoechst ([López-Arencibia et al., 2015]).

[3] = system: L. donovani promastigotes (AG83 strain); assay: LDH cytotoxicity assay on promastigotes, AG83 strain; type: cell-based, Leishmania donovani; settings: Leishmania donovani; Table 1; activity against promastigotes
Method: Promastigote forms of L. donovani (MHOM/IN/1983/AG83) were cultured at 26°C in M199 (GIBCO, India), pH 7.4, supplemented with 10% (v/v) inactivated fetal bovine serum (FBS, GIBCO, India) and 0.02 mg/ml gentamycin (Life Technologies, USA). The clinical isolate of PKDL, BS12, was obtained as a gift from Prof. Mitali Chatterjee [Department of Pharmacology, Institute of Postgraduate Medical Education and Research (IPGMER), Kolkata, India]. BS12 was routinely cultured at 22°C in M199 (GIBCO, India) with 100 U/ml penicillin-streptomycin (Gibco, Invitrogen, Thermo Fisher Scientific, NY, USA), 8 μM hemin (4 mM stock made in 50% triethanolamine) (Sigma, USA), 25 mM 4-(2-hydroxyethyl)-1-piperazineethanesulfonic acid (HEPES), supplemented with 10% heat-inactivated FBS (GIBCO, India). Cultures were maintained between 10^6 and 10^7 cells/ml for continuous exponential growth. In addition, 1 × 10^6 cells/ml parasite count was constantly maintained for all the experiments ([Ramu et al., 2017]).
All the compounds were dissolved in dimethyl sulfoxide (DMSO) (Sigma-Aldrich) for 1 mM stock solution and were screened against promastigotes at a concentration of 5 µM. For Glycosides (Gly) 2, 6, and 8, a range of concentrations starting from 100 nM to 100 µM were screened against promastigote forms of parasite and mammalian cells. Parasites (AG83 and PKDL strain) treated with amphotericin B (3 µg/ml) (Sigma-Aldrich) were maintained as the positive control.
AG83 strain of L. donovani were exposed to various Gly compound concentrations (100 nM–100 µM) in a 96-well microtiter plate (100 µl/well volume) and were incubated for 72 h at 26°C. Finally, lactate dehydrogenase (LDH) cytotoxic assay was performed as per standard protocol (CytoTox 96 Non-Radioactive Cytotoxicity Assay-Promega, USA). The percent cytotoxicity of test compounds was calculated by normalizing with amphotericin B as 100%. Further percentage growth inhibition was calculated using the formula:
% Growth Inhibition = Gly treated LDH activity- Spontaneous LDH activity
/Maximum LDH activity- Spontaneous LDH activity * 100
As per the formula, the spontaneous LDH Activity = activity of the untreated cells and the maximum LDH activity = activity of the amphotericin B-treated cells. IC50 value for Gly2, 6, and 8 treated was generated for AG83 and PKDL strain of L. donovani using sigmoidal dose–response model with nonlinear regression tool ([Ramu et al., 2017]).

CC(C)CCOC1O[C@H](CO)[C@@H](O)[C@H](O)[C@H]1O (stereo partly drawn) [Gly2]
percentage of CFDA-positive cells (AG83 promastigotes; 24 h): 81.59% | percentage of CFDA-positive cells (AG83 promastigotes; 48 h): 74.68% | percentage of CFDA-positive cells (AG83 promastigotes; 72 h): 68.48% | IC50 [1]: 1.97 µM | dead parasites (PI positive) [2]: ~ 94% and ~ 94.15% and ~ 90% | IC50 [3]: 1.13 µM
